The source of these data is paper PMC10002422, “Aggregation Limiting Cell-Penetrating Peptides Derived from Protein Signal Sequences” (International Journal of Molecular Sciences, 2023).

For data set [1], the system named is Aβ1–42-GFP fusion protein expressed in U87 cells. As to the kind of experiment: Reduction in expressed Aβ1–42-GFP aggregation, flow cytometry. The class given is cell-based, human. The settings on record: control inhibitor. A general note: A flow cytometer gives signals particle by particle.
The subject of data set [2] is U87 cells.
Method: Cell proliferation was analyzed with the CellTiter 96® Aqueous Non-Radioactive Cell Proliferation Assay (MTS) (Promega Biotech AB, Stockholm, Sweden) according to the manufacturer’s instructions. For this 1 × 10^5 U87 cells were seeded one day prior to the experiment on a transparent 96-well plate. On the experiment day, the media was replaced with 90 μL of fresh serum free or serum (10% FBS) containing media and to the wells, the peptides at the concentration range of 0–20 µM were added. The absorbance of formazan product was measured 20 h post-addition of peptides at 490 nm with Tecan Sunrise microplate absorbance reader (Tecan Group Ltd., Stockholm, Sweden). […] Additional background controls: MTS–reagent and media, without cells, Media–cells with only media and without reagent.

Where no end group is shown, it is not given here.

Consider `O=S1(=O)OC(c2ccc(O)cc2)(c2ccc(O)cc2)c2ccccc21` [phenol red], for which the “green signal in Aβ42–EGFP expressing cells after known Aβ inhibitor” value in data set [1] is reported as “significantly increased the green signal”.
In the case of “MLRTKDLIWTLFFLGTAVSKKRPKP-NH2 [NCAM1_1–19PrP23–28]”, the “peptide concentration at which cell viability is reduced (MTS) in serum free media” value in data set [2] was found to be 20 µM.
In the case of “MANLGYWLLALFVTMWTDVGLCKKRPKP-NH2 [PrP1–28]”, in data set [2], the “peptide concentration at which cell viability is reduced (MTS) in serum free media” value is recorded as 2.5 µM and the “reduction in the viability of cells (MTS) in serum free media” value is “over 20%”.
